Measured values taken from patent US10940188B2, “Compounds and methods for treatment and prevention of Flavivirus infection” (priority 2016, dated 2021).
Where a name gives a salt, the structure may show the parent alone. Read-outs that look alike come from different tables or passages of the source.

What was measured:
[1] = tested on: ZIKV-induced caspase 3/7 activity in human astrocytes; experiment: Caspase 3/7 activity assay, ZIKV-infected human astrocytes; assay type: cell-based; conditions: Astrocyte; for IC50: read-out: Caspase 3 (IC50, uM) Astrocyte; for Emax: read-out: Caspase 3 (efficacy, %) Astrocyte
Procedure: (§1) Caspase-Glo 3/7 assay kit (catalog number G8092; Promega, Madison, Wis.) was used to detect caspase 3/7 activity. Reagents were reconstituted as described in the protocol from the manufacturer. Polystyrene plates (384-well and 1536-well; regular tissue culture treated and PDL coated) were purchased from Greiner Bio-One (Monroe, N.C.). Cells were seeded in 384- and 1536-well assay plates and cultured at 37° C. with 5% CO2 for 16 hours. ZIKV solution was added to cells, followed by incubation at 37° C. with 5% CO2 for 6 hours. Caspase-Glo 3/7 was added to each well, unless otherwise specified, and incubated at room temperature for 30 minutes. The luminescence intensity of the assay plates was measured using a ViewLux plate reader (PerkinElmer). Data were normalized by using the cell-containing wells without ZIKV as a negative control (0% induction of caspase 3/7 activity) and wells containing ZIKV infected cells that induced caspase 3/7 activity were used as a positive control (100% induction of caspase 3/7 activity). […]
(§2) Caspase-Glo 3/7 assay kit (Promega) was used to detect caspase 3/7 activity. Reagents were reconstituted as described in the protocol from the manufacturer. Cells were seeded in 384- and 1536-well assay plates and cultured at 37° C. with 5% CO2 for 16 hours. ZIKV solution was added to cells, followed by incubation at 37° C. with 5% CO2 for 6 hours. Caspase-Glo 3/7 was added to each well at a 1:1 ratio, unless otherwise specified, and incubated at room temperature for 30 minutes. The luminescence intensity of the assay plates was measured using a ViewLux plate reader (PerkinElmer). Data was normalized by using the cell-containing wells without ZIKV as a negative (0% induction of caspase 3/7 activity) control and wells containing ZIKV infected cells that induced caspase 3/7 activity were used as a positive control (100% induction of caspase 3/7 activity). […]

[2] = tested on: ZIKV-induced caspase 3/7 activity in SNB-19 cells; experiment: Caspase 3/7 activity assay, ZIKV-infected SNB-19 cells; assay type: cell-based; conditions: Homo sapiens
Procedure: as §1, §2

[3] = tested on: ZIKV-induced caspase 3/7 activity in hNPCs; experiment: Caspase 3/7 activity assay, ZIKV-infected hNPCs; assay type: cell-based; conditions: Homo sapiens; for IC50: read-out: Caspase 3 (IC50, uM) NPCs; for Emax: read-out: Caspase 3 (efficacy, %) NPCs
Procedure: Caspase-Glo 3/7 assay kit (catalog number G8092; Promega, Madison, Wis.) was used to detect caspase 3/7 activity. Reagents were reconstituted as described in the protocol from the manufacturer. Polystyrene plates (384-well and 1536-well; regular tissue culture treated and PDL coated) were purchased from Greiner Bio-One (Monroe, N.C.). Cells were seeded in 384- and 1536-well assay plates and cultured at 37° C. with 5% CO2 for 16 hours. ZIKV solution was added to cells, followed by incubation at 37° C. with 5% CO2 for 6 hours. Caspase-Glo 3/7 was added to each well, unless otherwise specified, and incubated at room temperature for 30 minutes. The luminescence intensity of the assay plates was measured using a ViewLux plate reader (PerkinElmer). Data were normalized by using the cell-containing wells without ZIKV as a negative control (0% induction of caspase 3/7 activity) and wells containing ZIKV infected cells that induced caspase 3/7 activity were used as a positive control (100% induction of caspase 3/7 activity).
Human NPCs were seeded onto PDL coated 1536-well assay plates at 250 cells per 3 μl/well and incubated at 37° C. in 5% CO2 for 16 hours. Test compounds dissolved in DMSO were transferred to assay plates at a volume of 23 nl/well by an automated pintool workstation (Wako Automation, San Diego, Calif.). Compounds were incubated with cells for 30 minutes at 37° C. in 5% CO2, immediately followed by the addition of 2 μl/well of ZIKV. Incubation time of compound-treated cells with ZIKV varied based on assay format. Experiments measuring virus-induced caspase 3/7 activity required a 6 hour incubation of ZIKV in the presence compounds at 37° C. in 5% CO2. Following this incubation, 3.5 μl/well of caspase 3/7 reagent mixture was added to assay plates. The plates were incubated for 30 minutes at room temperature, and the resultant luminescence signal was measured using a ViewLux plate reader (Perkin Elmer). Experiments measuring virus-induced cell death required a 72-hour incubation of ZIKV in the presence of compounds at 37° C. in 5% CO2. Following this incubation, 3.5 μl/well of ATP content detection reagent was added to assay plates, incubated for 30 minutes at the room temperature, and the resultant luminescence signal was measured in a ViewLux plate reader.
Caspase-Glo 3/7 assay kit (Promega) was used to detect caspase 3/7 activity. Reagents were reconstituted as described in the protocol from the manufacturer. Cells were seeded in 384- and 1536-well assay plates and cultured at 37° C. with 5% CO2 for 16 hours. ZIKV solution was added to cells, followed by incubation at 37° C. with 5% CO2 for 6 hours. Caspase-Glo 3/7 was added to each well at a 1:1 ratio, unless otherwise specified, and incubated at room temperature for 30 minutes. The luminescence intensity of the assay plates was measured using a ViewLux plate reader (PerkinElmer). Data was normalized by using the cell-containing wells without ZIKV as a negative (0% induction of caspase 3/7 activity) control and wells containing ZIKV infected cells that induced caspase 3/7 activity were used as a positive control (100% induction of caspase 3/7 activity).
Human NPCs were seeded onto PDL coated 1536-well assay plates at 250 cells per 3 μl/well and incubated at 37° C. in 5% CO2 for 16 hours. Test compounds dissolved in DMSO were transferred to assay plates at a volume of 23 nl/well by an automated pintool workstation (Wako Automation, San Diego, Calif.). Compounds were incubated with cells for 30 minutes at 37° C. in 5% CO2, immediately followed by the addition of 2 μl/well of ZIKV. Incubation time of compound-treated cells with ZIKV varied based on assay format. Experiments measuring virus induced caspase 3/7 activity required a 6 hour incubation of ZIKV in the presence compounds at 37° C. in 5% CO2. […]

[4] = tested on: ZIKV-induced cell death in human astrocytes; experiment: ATP cell viability assay for ZIKV-induced cell death, human astrocytes; assay type: cell-based; conditions: for IC50: Astrocyte, read-out: Cell viability (IC50, uM) Astrocyte
[5] = tested on: ZIKV-induced cell death in SNB-19 cells; experiment: ATP cell viability assay for ZIKV-induced cell death, SNB-19 cells; assay type: cell-based, human; conditions: for IC50: Homo sapiens
Procedure: (§3) The reagent was reconstituted and prepared as described by the manufacturer. In order to measure the cell death caused by ZIKV infection, cells were cultured for 16 hours at 37° C. with 5% CO2 in assay plates, followed by the addition of ZIKV solution and incubation at 37° C. with 5% CO2 for 72 hours. ATPlite, the ATP monitoring reagent, was then added to the assay plates and they were incubated for 15 minutes. The resulting luminescence was measured using the ViewLux plate reader (Perkin Elmer). Data were normalized using the wells without cells as a control for 100% cell killing, and cell-containing wells without ZIKV infection were used as full cell viability (0% cell killing). […]
as §3, with “The ATPlite luminescence assay system assay kit (PerkinElmer) was used to determine cell viability. The reagent” for “The reagent”, “by the manufacture. In order” for “by the manufacturer. In order”, “followed by addition of” for “followed by the addition of”, “plates and incubated for” for “plates and they were incubated for”, “Elmer). Data was normalized using” for “Elmer). Data were normalized using”

[6] = ZIKV-infected SNB-19 cells, read-out: Caspase 3 (IC50, uM) SNB-19
[7] = ZIKV-infected SNB-19 cells, read-out: Caspase 3 (efficacy, %) SNB-19
[8] = ZIKV-infected SNB-19 cells, read-out: Cell viability (IC50, uM) SNB-19

| Compound | IC50 ([1]; ZIKV-infected human astrocytes) | IC50 [2, 6] | IC50 ([3]; ZIKV-infected hNPCs) | Emax ([1]; ZIKV-infected human astrocytes) | Emax [2, 7] | Emax ([3]; ZIKV-infected hNPCs) | Cell viability (efficacy, %) Astrocyte ([4]; ZIKV-infected human astrocytes) | IC50 [5, 8] | Cell viability (efficacy, %) SNB-19 ([5]; ZIKV-infected SNB-19 cells) | IC50 ([1]; Homo sapiens) | Emax ([1]; Homo sapiens) | IC50 ([2]; SNB-19, read-out: Caspase 3 (IC50, uM) SNB-19) | Emax ([2]; SNB-19, read-out: Caspase 3 (efficacy, %) SNB-19) | Emax [3] | IC50 ([4]; Homo sapiens) | IC50 ([5]; SNB-19, read-out: Cell viability (IC50, uM) SNB-19) | IC50 ([4]; ZIKV-infected human astrocytes) |
| --- | --- | --- | --- | --- | --- | --- | --- | --- | --- | --- | --- | --- | --- | --- | --- | --- | --- |
| O=C(/C=C/c1ccc(O)cc1)c1ccc(O)cc1O [Isoliquiritigenin] | 3.08 µM | 2.18 µM | 1.84 µM | 95.1% | 96.9% | 89% | 0.0% | 3.08 µM | 36.3% |  |  |  |  |  |  |  |  |
| Cc1oncc1C(=O)Nc1ccc(C(F)(F)F)cc1 [Leflunomide] | 4.35 µM | 3.27 µM | 1.38 µM | 98.1% | 106% | 97.8% | 0.0% |  | 0.0% |  |  |  |  |  |  |  |  |
| O=C1C[C@@H](c2ccc(O)cc2)Oc2cc(O)cc(O)c21 [Naringenin] | 17.3 µM | 15.5 µM | 15.5 µM | 65.2% | 66.3% | 63.4% | 0.0% |  | 0.0% |  |  |  |  |  |  |  |  |
| COc1cccc2c1C(=O)c1c(O)c3c(c(O)c1C2=O)C[C@@](O)(C(=O)CO)C[C@@H]3O[C@H]1C[C@H](N2CCO[C@H](OC)C2)[C@H](O)[C@H](C)O1 [Nemorubicin] |  |  |  |  |  |  | 146% |  | 117% | 15.5 µM | 42.6% | 30.8 µM | 53.1% | 82.9% | 0.87 µM | 0.41 µM |  |
| CC(=O)Oc1ccccc1C(=O)Nc1ncc([N+](=O)[O-])s1 [Nitazoxanide] | 2 µM | 2.24 µM | 1.26 µM | 90.3% | 86.4% | 82.3% | 53.6% | 23.7 µM | 62.1% |  |  |  |  |  |  |  | 31.6 µM |
| CN1CC[C@@]2(C)c3cc(OC(=O)Nc4ccccc4)ccc3N(C)[C@@H]12 [Phenserine] | 25.9 µM | 19.5 µM | 25.9 µM | 47.4% | 38.4% | 51.5% | 0.0% |  | 0.0% |  |  |  |  |  |  |  |  |
| COc1cccc2c1C(=O)c1c(O)c3c(c(O)c1C2=O)C[C@@](O)(C(=O)CO)C[C@@H]3O[C@H]1C[C@H](N)[C@H](O[C@@H]2CCCCO2)[C@H](C)O1 [Pirarubicin] | 13.8 µM | 20.6 µM |  | 59.8% | 63.9% | 51.5% | 0.0% |  | 0.0% |  |  |  |  |  |  |  |  |

Continued, in another order:

| IC50 ([1]; ZIKV-infected human astrocytes) | IC50 [2, 6] | IC50 ([3]; ZIKV-infected hNPCs) | Compound | Emax ([1]; ZIKV-infected human astrocytes) | Emax [2, 7] | Emax ([3]; ZIKV-infected hNPCs) | Cell viability (efficacy, %) Astrocyte ([4]; ZIKV-infected human astrocytes) | IC50 [5, 8] | Cell viability (efficacy, %) SNB-19 ([5]; ZIKV-infected SNB-19 cells) | IC50 ([1]; Homo sapiens) | Emax ([1]; Homo sapiens) | IC50 ([2]; SNB-19, read-out: Caspase 3 (IC50, uM) SNB-19) | Emax ([2]; SNB-19, read-out: Caspase 3 (efficacy, %) SNB-19) | Emax [3] | IC50 ([4]; Homo sapiens) | IC50 ([5]; SNB-19, read-out: Cell viability (IC50, uM) SNB-19) | IC50 ([4]; ZIKV-infected human astrocytes) |
| --- | --- | --- | --- | --- | --- | --- | --- | --- | --- | --- | --- | --- | --- | --- | --- | --- | --- |
| 8.2 µM | 6.9 µM | 6.9 µM | O=C(Nc1ccc(OC(F)(F)F)cc1)c1sccc1NCc1ccnc2ccccc12 [OSI-930] | 91.5% | 114% | 96.9% | 0.0% | 3.08 µM | 71.2% |  |  |  |  |  |  |  |  |
| 15.5 µM | 16.4 µM | 11.6 µM | Nc1ccc(/N=N/c2ccccc2)c(N)n1 [Phenazopyridine hydrochloride] | 69.9% | 73.7% | 72.5% | 0.0% | 27.5 µM | 35.3% |  |  |  |  |  |  |  |  |
| 6.9 µM | 8.2 µM | 4.61 µM | Clc1ccccc1-c1nc(-c2ccncc2)no1 [Pifexole] | 86.3% | 83.6% | 92.2% | 0.0% |  | 0.0% |  |  |  |  |  |  |  |  |
| 20.6 µM | 19.5 µM | 13.8 µM | O=C(/C=C/C=C/c1ccc2c(c1)OCO2)N1CCCCC1 [Piperine] | 73.9% | 75.5% | 66% | 0.0% |  | 0.0% |  |  |  |  |  |  |  |  |
